Experimental data as given in patent publication US20190358181A1, “METHODS FOR AUTISM SPECTRUM DISORDER PHARMACOTHERAPY” (priority 2017, published 2019).

Key:
Assay type in all cases: in vivo, human
males with ASD [1] = test: ADOS-2 (Autism Diagnostic Observation Schedule, 2nd edition), SAT-1 trial, single 20 mg/kg IV suramin infusion; conditions: for Difference from baseline (mean ± sd) / d (Cohen's d): 45 days after treatment
Experimental: (§1) Two observational examinations were performed by a clinician at 3 time points: baseline (56±8 days; mean±SEM; before the infusion), 2-days post-infusion, and 6-weeks post-infusion. The two examiner-based metrics were the Autism Diagnostic Observation Schedule, 2nd edition (ADOS-2) with video and audio files recorded on 3 cameras, and the Expressive One Word Picture Vocabulary Testing (EOWPVT). Both of these observational metrics were administered by a trained and certified examiner using approved test materials. Three standardized questionnaires were completed by parents at 3 time points: baseline, 7-days post-infusion, and 6-weeks post-infusion. The three standardized questionnaires completed by parents were the 58-question Aberrant Behavior Checklist (ABC), the 75-item Autism Treatment Evaluation Checklist (ATEC), and the 33-item repetitive behavior questionnaire (RBQ). Parents were asked to complete these three instruments with reference to how their child behaved in the previous 7 days. At the end of the six weeks, we included a 24-question Clinical Global Impression (CGI) questionnaire (FIG. 16). In addition, parents were asked to list the 3 top behaviors or symptoms that they observed to be most changed over the previous 6-weeks. To minimize the misinterpretation of natural day-to-day variations in symptoms, parents were asked to mark a symptom as changed in the 6-week CGI only if it had lasted for at least 1 week.
All children met DSM-5 diagnostic criteria for autism spectrum disorders, and received confirmatory testing by Autism Diagnostic Observation Schedule, 2nd edition (ADOS-2) examination. Inclusion criteria included males, ages 4-17 years, living in the San Diego, Calif. region, with a confirmed diagnosis of ASD.
(§2) For the test dose, 50 mg of suramin hexasodium (Bayer Pharmaceuticals, Inc.) in 5 mL of saline (experimental arm, 5 patients), or 5 mL of saline only (control arm, 5 patients) were given by slow intravenous (IV) push over 3 minutes, followed by a 10 mL flush of saline. One hour after the test dose, vital signs were repeated and a single infusion of either suramin (20 mg/kg, minus the 50 mg test dose, in 50 mL, up to a maximum of 1 gram) or saline (50 mL IV) was given over 30 minutes, followed by a 10 mL flush of saline.
Behavioral and neurological effects of treatment were assessed primarily by the examiner-based ADOS-2 protocol scores and standardized vocabulary testing (Expressive One Word Picture Vocabulary Test, EOWPVT), with secondary evaluation via parent-based assessments (Aberrant Behavior Checklist (ABC) scores, Autism Treatment Evaluation Checklist (ATEC) scores, Clinical Global Impression of Improvement (CGI) scores, and Repetitive Behavior Questionnaire (RBQ) scores). See General Methods for information related to behavioral test administration. Prior to the study, diagnosis of each of the enrolled participants was confirmed by ADOS-2 comparison scores of ≥7, and non-verbal IQ was tested by Leiter-3 examination. Examiner-based outcomes (ADOS and EOWPVT) were assessed at 2-days and 6-weeks after the infusion. Parent-based outcomes (ABC, ATEC, CGI, and RBQ) were assessed at 7-days and 6-weeks after the infusion. To minimize the effects of natural behavioral variability, the parents were instructed to mark a behavior as changed only if it was persistently changed for at least 1 week.
(§3) Each child was used as their own control to examine before and after treatment effects from Example 1 in a paired t-test design for the analysis of the ADOS, EOWPVT, ABC, ATEC, RBQ (FIGS. 4-11 show individual analyses), and blood and urine safety data (FIGS. 2 and 3 show individual analyses). Paired, non-parametric analysis was by Wilcoxon signed-rank sum test. Categorical data, such as the presence or absence of adverse events or historical symptoms was analyzed by Fisher's exact test. […]

males with ASD [2] = test: Repetitive Behavior Questionnaire (RBQ), SAT-1 trial
Experimental: as §1, with “At the end of the six weeks, we included a 24-question Clinical Global Impression (CGI) questionnaire (FIG. 16). In addition, parents were asked to list the 3 top behaviors or symptoms that they observed to be most changed over the previous 6-weeks. To minimize the misinterpretation of natural day-to-day variations in symptoms, parents were asked to mark a symptom as changed in the 6-week CGI only if it had lasted for at least 1 week.” left out
Behavioral and neurological effects of treatment were assessed primarily by the examiner-based ADOS-2 protocol scores and standardized vocabulary testing (Expressive One Word Picture Vocabulary Test, EOWPVT), with secondary evaluation via parent-based assessments (Aberrant Behavior Checklist (ABC) scores, Autism Treatment Evaluation Checklist (ATEC) scores, Clinical Global Impression of Improvement (CGI) scores, and Repetitive Behavior Questionnaire (RBQ) scores). […] Examiner-based outcomes (ADOS and EOWPVT) were assessed at 2-days and 6-weeks after the infusion. Parent-based outcomes (ABC, ATEC, CGI, and RBQ) were assessed at 7-days and 6-weeks after the infusion. […]
as §3, with “Paired, non-parametric analysis was by Wilcoxon signed-rank sum test.” left out

[3] = Toxicity and safety monitoring, adverse events graded by CTCAE v4.03, SAT-1 trial
Experimental: Immediately before the infusion, height and weight were recorded, vital signs and capillary oxygen saturation (pulse oximetry) measured, physical and neurological examinations were conducted, and urine and blood for safety monitoring, pharmacology, and metabolomics was collected.
as §2
Suramin pharmacokinetics was assessed by serum isolation at the 4 time points immediately before and after the infusion. […] Unexpected and adverse events were recorded as they occurred and graded in severity according to the National Cancer Institute Common Terminology Criteria for Adverse Events v4.03 (CTCAE) scale. Additional pharmacovigilence monitoring included daily scripted phone calls in the first week, then 4 weekly calls until the exit examinations at 6 weeks.
Paired, non-parametric analysis was by Wilcoxon signed-rank sum test. Categorical data, such as the presence or absence of adverse events or historical symptoms was analyzed by Fisher's exact test. Two-way ANOVA (treatment×time), with Sidak post hoc correction, was used to analyze the 6-week summaries captured by the ADOS, CGI, and additional blood and urine safety analysis. Cohen's d—calculated as the mean difference of the paired, within-subject scores before and after treatment, divided by the standard deviation of the differences—was used as an estimate of effect size.

[4] = RBQ Total, 45 days after treatment

In the case of Cc1ccc(C(=O)Nc2ccc(S(=O)(=O)O)c3cc(S(=O)(=O)O)cc(S(=O)(=O)O)c23)cc1NC(=O)c1cccc(NC(=O)Nc2cccc(C(=O)Nc3cc(C(=O)Nc4ccc(S(=O)(=O)O)c5cc(S(=O)(=O)O)cc(S(=O)(=O)O)c45)ccc3C)c2)c1 [Suramin, suramin], the “mean ADOS comparison score” value (males with ASD [1]; 6-weeks after suramin (8.6±0.4 at baseline)) is reported as 7.0±0.3, the “ADOS-2 comparison scores improved by an average of (mean±SD)” value (males with ASD [1]; 6-weeks, suramin treatment group, n=5) is reported as −1.6±0.55 points and the “2-day ADOS scores” value (males with ASD [1]; 2 days after suramin (FIG. 10A)) is reported as “no change”. The “Difference from baseline (mean ± sd)” value (males with ASD [1]; ADOS-2 Comparison) was −1.6 ± 0.55, the “d (Cohen's d)” value (males with ASD [1]; ADOS-2 Comparison) was 2.9 and the “Difference from baseline (mean ± sd)” value (males with ASD [1]; ADOS-2 Raw) was −4.6 ± 1.9. The “d (Cohen's d)” value (males with ASD [1]; ADOS-2 Raw) was 2.4, the “Difference from baseline (mean ± sd)” value (males with ASD [1]; ADOS-2 Restr/Rep (restricted or repetitive behaviors)) was −1.4 ± 0.89 and the “d (Cohen's d)” value (males with ASD [1]; ADOS-2 Restr/Rep) was 1.6. The “Difference from baseline (mean ± sd)” value (males with ASD [1]; ADOS-2 Social) was −3.2 ± 1.9, the “d (Cohen's d)” value (males with ASD [1]; ADOS-2 Social) was 1.7 and the “Repetitive Behavior Questionnaire (RBQ) scores” value (males with ASD [2]; 6-weeks) was “did not capture a change”. The “Difference from baseline (mean ± sd)” value (males with ASD [2]; [4]) was −3.2 ± 5.8, the “d (Cohen's d)” value (males with ASD [2]; [4]) was 0.55 and the “Adverse or Unanticipated Events, Suramin (N = 5)” value (“Adverse or Unanticipated Events” for short) ([3]; Asymptomatic rash) was 5. For the same molecule, the “CTCAE Grade” value ([3]; Asymptomatic rash) was 1, the “Adverse or Unanticipated Events” value ([3]; Emesis x 1) was 1^4 and the “CTCAE Grade” value ([3]; Emesis x 1) was 1. For the same molecule, the “Adverse or Unanticipated Events” value ([3]; Enuresis) was 1^9, the “CTCAE Grade” value ([3]; Enuresis) was 1 and the “Adverse or Unanticipated Events” value ([3]; Headache) was 1. The “CTCAE Grade” value ([3]; Headache) was 1, the “Adverse or Unanticipated Events” value ([3]; Hyperactivity) was 2^6 and the “CTCAE Grade” value ([3]; Hyperactivity) was 1. The “Adverse or Unanticipated Events” value ([3]; Hypoglycemia) was 1, the “CTCAE Grade” value ([3]; Hypoglycemia) was 2 and the “Adverse or Unanticipated Events” value ([3]; Leukocytosis) was 0. The “Adverse or Unanticipated Events” value ([3]; Peripheral neuropathy) was 0, the “Adverse or Unanticipated Events” value ([3]; Total) was 13 and the “Adverse or Unanticipated Events” value ([3]; Total, excluding rash) was 8. For the same molecule, the “Adverse or Unanticipated Events” value ([3]; Uncomplicated URI) was 2, the “CTCAE Grade” value ([3]; Uncomplicated URI) was 1 and the “serious toxicities (CTCAE grades 3-5)” value ([3]; extensive monitoring, single 20 mg/kg IV) was “no serious toxicities”. The “extent of morbilliform rash” value ([3]; five children who received suramin) was 1%-20%, the “time of rash peak after the infusion” value ([3]; in vivo) was 1 days and the “time to spontaneous disappearance of rash” value ([3]; in vivo) was 2 to 4 days. For the same molecule, the “free cortisol, hemoglobin, white blood cell count (WBC), platelets, liver transaminases, creatinine, and urine protein” value ([3]; suramin vs placebo (FIGS. 2 and 3)) was “showed no differences”.
